Reference: ChEMBL document CHEMBL1201862, “PubChem BioAssay data set” (2004)
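48-hour exposure; five concentrations; linearly interpolated endpoints. GI50 marks 50% less growth.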 The source made the active and inactive calls. No stated cut-off is given here; in the data, active = GI50 up to about 1.1 µM and inactive = higher.

What was measured:
Test in all cases: NCI tumour cell line growth inhibition, 48 h
[1] = test system: MOLT-4
[2] = test system: EKVX
[3] = test system: SNB-75
[4] = test system: NCI-H522
[5] = test system: M19-MEL
[6] = test system: Malme-3M
[7] = test system: A498
[8] = test system: A549
[9] = test system: SF-268
[10] = test system: K562
[11] = test system: ACHN
[12] = test system: RPMI-8226
[13] = test system: SF-295
[14] = test system: SW-620
[15] = test system: SNB-19
[16] = test system: 786-0
[17] = test system: SN12C
[18] = test system: LXFL 529
[19] = test system: HCT-15
[20] = test system: OVCAR-3
[21] = test system: NCI-H23
[22] = test system: M14
[23] = test system: OVCAR-4
[24] = test system: SK-MEL-2
[25] = test system: OVCAR-8
[26] = test system: HOP-62
[27] = test system: XF498
[28] = test system: U-251
[29] = test system: DMS-114
[30] = test system: UO-31
[31] = test system: UACC-62
[32] = test system: OVCAR-5
[33] = test system: COLO 205
[34] = test system: CAKI-1
[35] = test system: HOP-18
[36] = test system: SK-MEL-5
[37] = test system: RXF 393
[38] = test system: SNB-78
[39] = test system: LOX IMVI
[40] = test system: HCC 2998
[41] = test system: KM-20L2
[42] = test system: NCI-H460
[43] = test system: KM12
[44] = test system: UACC-257
[45] = test system: CCRF-CEM
[46] = test system: IGROV-1
[47] = test system: HCT-116
[48] = test system: SF-539
[49] = test system: HL-60
[50] = test system: DMS-273
[51] = test system: SK-OV-3
[52] = test system: HT-29
[53] = test system: SR
[54] = test system: HOP-92
[55] = test system: DLD-1
[56] = test system: TK-10
[57] = test system: SK-MEL-28
[58] = test system: NCI-H226

COc1c(OC)c(N)c2cc(C)c(=O)c(C)cc2c1N
GI50 [1]: > 100 µM (inactive) | GI50 [2]: > 100 µM (inactive) | GI50 [3]: 56.4 µM (inactive) | GI50 [4]: 96.8 µM (inactive) | GI50 [5]: > 100 µM (inactive) | GI50 [6]: > 100 µM (inactive) | GI50 [7]: > 100 µM (inactive) | GI50 [8]: > 100 µM (inactive) | GI50 [9]: > 100 µM (inactive) | GI50 [10]: > 100 µM (inactive) | GI50 [11]: > 100 µM (inactive) | GI50 [12]: > 100 µM (inactive) | GI50 [13]: > 100 µM (inactive) | GI50 [14]: 18.1 µM (inactive) | GI50 [15]: > 100 µM (inactive) | GI50 [16]: 64.7 µM (inactive) | GI50 [17]: > 100 µM (inactive) | GI50 [18]: 64.9 µM (inactive) | GI50 [19]: 99.8 µM | GI50 [20]: > 100 µM (inactive) | GI50 [21]: > 100 µM (inactive) | GI50 [22]: > 100 µM (inactive) | GI50 [23]: > 100 µM (inactive) | GI50 [24]: > 100 µM (inactive) | GI50 [25]: > 100 µM (inactive) | GI50 [26]: > 100 µM (inactive) | GI50 [27]: > 100 µM (inactive) | GI50 [28]: > 100 µM (inactive) | GI50 [29]: 50.9 µM (inactive) | GI50 [30]: > 100 µM (inactive) | GI50 [31]: > 100 µM (inactive) | GI50 [32]: > 100 µM (inactive) | GI50 [33]: 35.4 µM (inactive) | GI50 [34]: > 100 µM (inactive) | GI50 [35]: > 100 µM (inactive) | GI50 [36]: > 100 µM (inactive) | GI50 [37]: > 100 µM (inactive) | GI50 [38]: > 100 µM (inactive) | GI50 [39]: 55.2 µM (inactive) | GI50 [40]: > 100 µM (inactive) | GI50 [41]: > 100 µM (inactive) | GI50 [42]: > 100 µM (inactive) | GI50 [43]: > 100 µM (inactive) | GI50 [44]: > 100 µM (inactive) | GI50 [45]: 41.9 µM (inactive) | GI50 [46]: > 100 µM (inactive) | GI50 [47]: 97.1 µM (inactive) | GI50 [48]: > 100 µM (inactive) | GI50 [49]: > 100 µM (inactive) | GI50 [50]: > 100 µM (inactive) | GI50 [51]: > 100 µM (inactive) | GI50 [52]: > 100 µM (inactive) | GI50 [53]: 12.4 µM (inactive) | GI50 [54]: > 100 µM (inactive) | GI50 [55]: 55.7 µM (inactive) | GI50 [56]: > 100 µM (inactive)

O=C(Cc1ccccc1)NN1C(=O)C(Cl)C1c1cccc(O)c1 (configuration not stated)
GI50 [1]: 7.69 µM (inactive) | GI50 [2]: 18.6 µM (inactive) | GI50 [3]: 26.5 µM (inactive) | GI50 [4]: 9.23 µM (inactive) | GI50 [5]: 18 µM (inactive) | GI50 [6]: 31.6 µM (inactive) | GI50 [8]: 25.1 µM (inactive) | GI50 [9]: 21.1 µM (inactive) | GI50 [10]: 6.27 µM (inactive) | GI50 [11]: 16.4 µM (inactive) | GI50 [12]: 2.84 µM (inactive) | GI50 [13]: 16.7 µM (inactive) | GI50 [14]: 5.2 µM (inactive) | GI50 [15]: 42.7 µM (inactive) | GI50 [16]: 13.2 µM (inactive) | GI50 [17]: 18.5 µM (inactive) | GI50 [18]: 10.6 µM (inactive) | GI50 [19]: 18.7 µM | GI50 [20]: 14.6 µM (inactive) | GI50 [21]: 17.5 µM (inactive) | GI50 [22]: 15.3 µM (inactive) | GI50 [23]: 17.7 µM (inactive) | GI50 [24]: 27 µM (inactive) | GI50 [25]: 14 µM (inactive) | GI50 [26]: 27.2 µM (inactive) | GI50 [27]: 20.1 µM (inactive) | GI50 [28]: 11.9 µM (inactive) | GI50 [29]: 13.8 µM (inactive) | GI50 [30]: 15.9 µM (inactive) | GI50 [57]: 18.4 µM (inactive) | GI50 [31]: > 10 µM (inactive) | GI50 [32]: 14.4 µM (inactive) | GI50 [33]: 18.4 µM (inactive) | GI50 [34]: 17.9 µM (inactive) | GI50 [35]: 20.6 µM (inactive) | GI50 [37]: 18 µM (inactive) | GI50 [38]: 15.8 µM (inactive) | GI50 [39]: 13.5 µM (inactive) | GI50 [40]: 20.2 µM (inactive) | GI50 [41]: 15.1 µM (inactive) | GI50 [42]: 15.3 µM (inactive) | GI50 [44]: 18.2 µM (inactive) | GI50 [45]: 3.06 µM (inactive) | GI50 [58]: 21.7 µM (inactive) | GI50 [46]: 17.2 µM (inactive) | GI50 [47]: 13.6 µM (inactive) | GI50 [49]: 11.8 µM (inactive) | GI50 [50]: 16.1 µM (inactive) | GI50 [51]: 28.2 µM (inactive) | GI50 [52]: 16.7 µM (inactive) | GI50 [53]: 3.58 µM (inactive) | GI50 [55]: 14.8 µM (inactive) | GI50 [56]: 18.9 µM (inactive)

COC(=O)C1Cc2c([nH]c3ccccc23)[C@H](CC(C)C)N1 (some centres not stated)
GI50 [1]: > 100 µM (inactive) | GI50 [2]: > 100 µM (inactive) | GI50 [3]: 97.5 µM (inactive) | GI50 [4]: > 100 µM (inactive) | GI50 [5]: > 100 µM (inactive) | GI50 [6]: > 100 µM (inactive) | GI50 [7]: > 100 µM (inactive) | GI50 [8]: > 100 µM (inactive) | GI50 [9]: > 100 µM (inactive) | GI50 [10]: > 100 µM (inactive) | GI50 [11]: > 100 µM (inactive) | GI50 [12]: > 100 µM (inactive) | GI50 [13]: > 100 µM (inactive) | GI50 [14]: > 100 µM (inactive) | GI50 [15]: > 100 µM (inactive) | GI50 [16]: > 100 µM (inactive) | GI50 [17]: > 100 µM (inactive) | GI50 [18]: > 100 µM (inactive) | GI50 [20]: > 100 µM (inactive) | GI50 [21]: > 100 µM (inactive) | GI50 [22]: > 100 µM (inactive) | GI50 [24]: > 100 µM (inactive) | GI50 [25]: > 100 µM (inactive) | GI50 [26]: > 100 µM (inactive) | GI50 [27]: > 100 µM (inactive) | GI50 [28]: > 100 µM (inactive) | GI50 [29]: > 100 µM (inactive) | GI50 [30]: > 100 µM (inactive) | GI50 [57]: > 100 µM (inactive) | GI50 [31]: > 100 µM (inactive) | GI50 [32]: > 100 µM (inactive) | GI50 [33]: > 100 µM (inactive) | GI50 [35]: > 100 µM (inactive) | GI50 [37]: > 100 µM (inactive) | GI50 [38]: > 100 µM (inactive) | GI50 [39]: > 100 µM (inactive) | GI50 [40]: > 100 µM (inactive) | GI50 [41]: > 100 µM (inactive) | GI50 [43]: > 100 µM (inactive) | GI50 [44]: > 100 µM (inactive) | GI50 [45]: > 100 µM (inactive) | GI50 [58]: > 100 µM (inactive) | GI50 [46]: > 100 µM (inactive) | GI50 [47]: > 100 µM (inactive) | GI50 [48]: > 100 µM (inactive) | GI50 [49]: > 100 µM (inactive) | GI50 [50]: > 100 µM (inactive) | GI50 [51]: > 100 µM (inactive) | GI50 [52]: > 100 µM (inactive) | GI50 [53]: > 100 µM (inactive) | GI50 [54]: > 100 µM (inactive) | GI50 [55]: > 100 µM (inactive) | GI50 [56]: > 100 µM (inactive)
